Reference: US20120027842A1, “TOPICAL FORMULATIONS OF FLAP INHIBITORS FOR ADMINISTRATION TO AN EYE” (Amira Pharmaceuticals, Inc., priority 2008, published 2012)
Values belong to the molecule of their own block, whether it stands above or below them.

Legend:
[1] = Solubility in 10% beta-hydroxypropyl cyclodextrin (BHPC) in water; format: physicochemical; settings: Na salt; at 1 mg/mL
Method: In one aspect, aqueous ophthalmic solutions that include a FLAP inhibitor compounds were prepared by dissolving a FLAP inhibitor compound in 10% beta-hydroxypropyl cyclodextrin (BHPC) in water. Using this formulation, the following compounds were soluble at 1 mg/mL: Compound A (Na salt), Compound B (Na salt), Compound C (Na salt), Compound I (Na salt), Compound J (Na salt), Compound G (Na salt).

[2] = tested on: CysLTs; assay: Mouse model of RSV-infected eye: CysLT measurements in eye homogenates (EIA); format: in vivo, BALB/c mice; settings: topical treatment of RSV-infected mouse eyes, 60 ng/2 μL daily
Method: (§1) A mouse model of respiratory syncytial virus (RSV) eye infection is used to test the effects of ocular application of a FLAP inhibitor compound on RSV-induced ocular immunopathology (Bitko V, et al., J. Virol. 2007; 81(2):783-90; Bitko V, et al., Nat. Med. 2005; 11(1):50-5). Each mouse eye is topically treated with 60 ng of FLAP inhibitor compound or vehicle (sterile saline) in a volume of 2 μl. The FLAP inhibitor compound is instilled 40 min after virus inoculum and then once daily over the entire duration of the protocol (14 days).
(§2) Instillation of virus and inhibitor in the eye. Female BALB/c mice, 6 to 8 weeks old, were purchased from Charles River Laboratories. RSV (Long strain, serotype A) was grown on HEp-2 cells and purified on sucrose layers to a concentration of 10^11 PFU (Bitko et al., Nat. Med. 11:50-55, 2005). Dilutions were done in phosphate-buffered saline (PBS) immediately before use to a final concentration of 10^4 PFU/2 μL as needed. A similarly diluted sucrose solution was used in sham-infected control mice. Mice were anesthetized by intraperitoneal injection of pentobarbital (50 mg/kg), and virus in 2 μL PBS was dropped into the corneal surface and massaged in with closed eyelids. The day of the inoculation was considered day 0. […]

[3] = tested on: RSV; assay: Mouse model of RSV-infected eye: RSV viral load, RNA and protein in eye and lung; format: in vivo, BALB/c mice; settings: ocular application to RSV-infected mice
Method: as §1
Instillation of virus and inhibitor in the eye. Female BALB/c mice, 6 to 8 weeks old, were purchased from Charles River Laboratories. RSV (Long strain, serotype A) was grown on HEp-2 cells and purified on sucrose layers to a concentration of 10^11 PFU (Bitko et al., Nat. Med. 11:50-55, 2005). Dilutions were done in phosphate-buffered saline (PBS) immediately before use to a final concentration of 10^4 PFU/2 μL as needed. A similarly diluted sucrose solution was used in sham-infected control mice. Mice were anesthetized by intraperitoneal injection of pentobarbital (50 mg/kg), and virus in 2 μL PBS was dropped into the corneal surface and massaged in with closed eyelids. The day of the inoculation was considered day 0. The FLAP inhibitor Compound C was diluted in PBS to 60 ng/2 μL just prior to application of 2 μL 40 minutes after the RSV inoculation on day 0 and then each day.
RSV RNA and protein: RSV is assayed in the ocular tissue on various days using both Western blot and viable virus assay (plaque forming unit; pfu) as described before. […] is quantified by RT-PCR. RSV RNA and protein were measured in the eye and lung (Urnowey et al., BMC Microbiol. 6:26, 2006).
Compound C reduced RSV in the lung.
Infection of an eye eventually transmits into the lung, causing a standard respiratory infection. […] Thus, it is of interest to monitor the lung infection to determine if the ocular application of the FLAP inhibitor compound has any effect on virus replication and quantity of virus in the lung. […]

[4] = tested on: IL-4; assay: Mouse model of RSV-infected eye: Interleukin-4 (IL-4) measurements in eye homogenates; format: in vivo, BALB/c mice; settings: topical treatment of RSV-infected mouse eyes, 60 ng/2 μL daily
Method: as §1, §2

[5] = tested on: RSV (Long strain, serotype A); assay: Mouse model of RSV-infected eye: ocular pathology; format: in vivo, BALB/c mice
Method: as §1
Instillation of virus and inhibitor in the eye. Female BALB/c mice, 6 to 8 weeks old, were purchased from Charles River Laboratories. RSV (Long strain, serotype A) was grown on HEp-2 cells and purified on sucrose layers to a concentration of 10^11 PFU (Bitko et al., Nat. Med. 11:50-55, 2005). […]
Ocular pathology. Ocular disease was evaluated with a slit lamp biomicroscope as described previously (Bitko V, et al., J. Virol. 2007; 81(2):783-90) 15; Girgis et al., Invest. […] Pathology was scored on a scale of 0 to 5 as follows: 0=clear eye; 1=slight redness in the corners; 2=moderate redness and injection; 3=conjunctival and corneal injection with ciliary flush; 4=extensive injection, generally associated with some mucus; 5=most extensive injection, associated with mucus. Eyes were examined in a coded fashion with the reader unaware of the treatment given. […]

[6] = set-up: species or system BALB/c mice; settings: mouse, in vivo, 10 mg/kg

- solubility in 10% beta-hydroxypropyl cyclodextrin (BHPC) in water [1]: soluble
Structure (SMILES): CCC(CC)(Cc1c(SC(C)(C)C)c2cc(OCc3ccc(C)cn3)ccc2n1Cc1ccc(-c2ncc(OC)cn2)cc1)C(=O)O [Compound G, 2-[3-tert-Butylsulfanyl-1-[4-(5-methoxy-pyrimidin-2-yl)-benzyl]-5-(5-methyl-pyridin-2-ylmethoxy)-1H-indol-2-ylmethyl]-2-ethyl-butyric acid]

- solubility in 10% beta-hydroxypropyl cyclodextrin (BHPC) in water [1]: soluble
Structure (SMILES): CC(=O)N1CCC[C@H]1COc1ccc2c(c1)c(SC(C)(C)C)c(CC(C)(C)C(=O)O)n2Cc1ccc(Cl)cc1 [Compound I, 3-[5-((S)-1-Acetyl-pyrrolidin-2-ylmethoxy)-3-tert-butylsulfanyl-1-(4-chloro-benzyl)-1H-indol-2-yl]-2,2-dimethyl-propionic acid]

- solubility in 10% beta-hydroxypropyl cyclodextrin (BHPC) in water [1]: soluble
Structure (SMILES): CC(C)(C)Sc1c(CC(C)(C)C(=O)O)n(Cc2ccc(-c3ccc(F)cn3)cc2)c2ccc(OCc3ccccn3)cc12 [Compound J, 3-[3-tert-butylsulfanyl-1-[4-(5-fluoro-pyridin-2-yl)-benzyl]-5-(pyridin-2-ylmethoxy)-1H-indol-2-yl]-2,2-dimethyl-propionic acid]

- Plasma concentration @ trough [6]: <10 nM
Structure (SMILES): CCN(Cc1cc(C(F)(F)F)ccc1-c1cncc(CC(=O)O)c1)C(=O)OCc1ccccc1 [DP2 receptor antagonist]

Continued, molecule first:

Structure (SMILES): COc1cnc(-c2ccc(Cn3c(CC(C)(C)C(=O)O)c(SC(C)(C)C)c4cc(OCc5ccc(C)cn5)ccc43)cc2)nc1 [Compound A, 3-[3-tert-Butylsulfanyl-1-[4-(5-methoxy-pyrimidin-2-yl)-benzyl]-5-(5-methyl-pyridin-2-ylmethoxy)-1H-indol-2-yl]-2,2-dimethyl-propionic acid]
- solubility in 10% beta-hydroxypropyl cyclodextrin (BHPC) in water [1]: soluble

Structure (SMILES): COc1cnc(-c2ccc(Cn3c(CC(C)(C)C(=O)O)c(SC(C)(C)C)c4cc(OCc5cnc(C)cn5)ccc43)cc2)nc1 [Compound B, 3-[3-tert-Butylsulfanyl-1-[4-(5-methoxy-pyrimidin-2-yl)-benzyl]-5-(5-methyl-pyrazin-2-ylmethoxy)-1H-indol-2-yl]-2,2-dimethyl-propionic acid]
- solubility in 10% beta-hydroxypropyl cyclodextrin (BHPC) in water [1]: soluble

Structure (SMILES): COc1cnc(-c2ccc(Cn3c(CC(C)(C)C(=O)O)c(SC(C)(C)C)c4cc(OC[C@@H]5Cc6ccccc6N5C(C)=O)ccc43)cc2)nc1 [Compound C, 3-{5-((S)-1-Acetyl-2,3-dihydro-1H-indol-2-ylmethoxy)-3-tert-butylsulfanyl-1-[4-(5-methoxy-pyrimidin-2-yl)-benzyl]-1H-indol-2-yl}-2,2-dimethyl-propionic acid]
- levels of CysLTs in eye homogenates [2]: reduced
- solubility in 10% beta-hydroxypropyl cyclodextrin (BHPC) in water [1]: soluble
- RSV in the lung [3]: reduced
- RSV mRNA or protein in the eye or the lung [3]: did not increase
- viral load in the eye or the lung [3]: did not increase
- levels of IL-4 in eye homogenates [4]: reduced
- gummy residue and mucin build up in infected eyes ([5]; ocular application 60 ng/2 μL per eye daily, day 8): clear of gummy residue and mucin build up
- RSV eye pathology score (scale of 0 to 5) ([5]; ocular application 60 ng/2 μL per eye, 40 min after RSV then daily, days 2-14 after RSV challenge): reduces the pathology score across all observation days

Structure (SMILES): CC(C)(C)Sc1c(CC(C)(C)C(=O)O)n(Cc2ccc(-c3ccc(F)cn3)cc2)c2ccc(OCc3ccc4ccccc4n3)cc12 [Compound F, 3-[3-tert-Butylsulfanyl-1-[4-(5-fluoro-pyridin-2-yl)-benzyl]-5-(quinolin-2-ylmethoxy)-1H-indol-2-yl]-2,2-dimethyl-propionic acid]
- solubility in 10% beta-hydroxypropyl cyclodextrin (BHPC) in water [1]: formed a cloudy solution
